According to patent US20040086896A1, “Polynucleotides and polypeptides associated with the NF-kB pathway” (priority 2001, published 2004):

B1: IL-1α: IL-1α (Peprotech) cytokine stimulus (protein, UniProt P01583 113-271, looked up)
Interleukin-1 alpha: SAPFSFLSNVKYNFMRIIKYEFILNDALNQSIIRANDQYLTAAALHNLDEAVKFDMGAYKSSKDDAKITVILRISKTQLYVTAQDEDQPVLLKEMPEIPKTITGSETNLLFFWETHGTKNYFTSVAHPNLFIATKQDYWVCLAGGPPSITDFQILENQA

How the values were obtained:
AD037 mRNA [1] = assay: AD037 mRNA by RT-PCR in stimulated THP-1 human monocyte line; type: cell-based; conditions: THP-1 cells stimulated for 8, 24, or 48 hours; 100 ng/ml LPS, 10 ng/ml TNFα or 100 units/ml IFN-γ; FIG. 18
Experimental: Nonetheless, the following methods were used to assess the expression profile of the NFkB assocaited polypeptides of the present invention. Briefly, poly (A)^+ mRNA was isolated from THP-1 cells that were either unstimulated, or stimulated with 100 ng/ml LPS for two hours in the presence and absence of BMS-205820 (2 uM) using the Fast Track isolation kit (Invitrogen, Carlsbad, Calif.) according to the manufacturer's instructions. RNA quality and quantity were evaluated using UV spectrometry and capillary electrophoresis with the RNA 6000 Assay (Agilent). […]
PCR reactions were performed in a total volume of 40 ul containing master mix (SYBR Green I dye, 50 mM Tris-Cl pH 8.3, 75 mM KCl, DMSO, Rox reference dye, 5 mM MgCl2, 2 mM dNTP, I unit Platinum Taq High Fidelity enzyme), 0.5 uM each of forward and reverse gene-specific primers, and cDNA (8 ul of a 1:36 dilution of the first strand reaction mix). […] The data were analyzed using the TaqMan 5700 software with the threshold value set to 0.5. […]
The THP-1 human monocyte line was stimulated with 100 ng/ml LPS, 10 ng/ml TNFα (Peprotech, Rocky Hill, N.J.), or 100 units/ml interferon-γ (IFN-γ, Peprotech) for either 8, 24, or 48 hours. […] The levels of each NFkB associated polypeptide mRNA may be measured by RT-PCR analysis using the primers described herein for each gene. […]

AD037 mRNA [2] = assay: AD037 mRNA by RT-PCR in stimulated synovial fibroblasts; type: cell-based; conditions: synovial fibroblasts, 1, 6, or 24 hours; TNFα, IL-1α, IL-17 10 ng/ml, IL-17B-Ig fusion protein 5 ng/ml; FIG. 20
Experimental: Nonetheless, the following methods were used to assess the expression profile of the NFkB assocaited polypeptides of the present invention. Briefly, poly (A)^+ mRNA was isolated from THP-1 cells that were either unstimulated, or stimulated with 100 ng/ml LPS for two hours in the presence and absence of BMS-205820 (2 uM) using the Fast Track isolation kit (Invitrogen, Carlsbad, Calif.) according to the manufacturer's instructions. RNA quality and quantity were evaluated using UV spectrometry and capillary electrophoresis with the RNA 6000 Assay (Agilent). Five-hundred nanograms of polyA RNA was used for first-strand cDNA synthesis using the SuperScriptTm First-Strand Synthesis System for RT-PCR (Invitrogen) according to the manufacturer's instructions with 250 ng of random hexamers.
PCR reactions were performed in a total volume of 40 ul containing master mix (SYBR Green I dye, 50 mM Tris-Cl pH 8.3, 75 mM KCl, DMSO, Rox reference dye, 5 mM MgCl2, 2 mM dNTP, I unit Platinum Taq High Fidelity enzyme), 0.5 uM each of forward and reverse gene-specific primers, and cDNA (8 ul of a 1:36 dilution of the first strand reaction mix). For tissue expression analyses, PCR reactions included 2 ul of cDNA derived from the Human Multiple Tissue cDNA panel I and Human Immune System MTC Panel (Clontech, Palo Alto, Calif.). The amplification program consisted of a 10 minute incubation at 95° C., followed by 40 cycles of incubations at 95° C. for 15 seconds, 60° C. for 1 minute. The amplification was followed by melting curve analysis at 60° C. to determine the specificity of the amplification reaction. A negative control without cDNA template was run to assess the overall specificity. The data were analyzed using the TaqMan 5700 software with the threshold value set to 0.5. The message levels of GAPDH were used to normalize the amounts of cDNA for each reaction.
Synovial fibroblasts were obtained from Cell Applications, INC. […] The levels of each NFkB associated polypeptide mRNA may be measured by RT-PCR analysis using the primers described herein for each gene. […]

NF-κB pathway = assay: AD037 mRNA by quantitative PCR in THP-1 monocytes, LPS with dexamethasone or IKK-2 inhibitor (FIG. 80); type: cell-based, human; conditions: LPS, 2, 4 and 8 hours post stimulation
Experimental: The figure illustrates the basal AD037 expression in THP-1 monocytes in response to LPS (“LPS”), LPS and the glucocorticoid dexamethasone (“LP/Dex”), or LPS and the IKK-2 inhibitor BMS-345541 (“LPS/345541”), for 2 hours, 4 hours, and 8 afters post stimulation. Unstimulated THP-1 moncytes served as a control. […] Expression data was obtained by measuring the steady state AD037 mRNA levels by quantitative PCR using the PCR primer pair provided as SEQ ID NO:162 and 163 as described herein.
Moreover, in an effort to further confirm the NF-κB-dependent expression of AD037, two approaches were investigated. In the first approach, additional inhibitors of the NF-κB pathway were used to assess their affect on AD037 expression. Although it has other transcriptional effects, dexamethasone inhibits NF-κB activity via glucocorticoid receptor-mediated transrepression (Reichardt et al. (2001) EMBO J. 20:7168-7173). The compound 4(2′-aminoethyl)amino-1,8-dimethylimidazo(1,2-a) quinoxaline, is a selective IKK-2 inhibitor (International Publication No. WO 02/60386, Published Oct. 10, 2002; Burke et al. (2003) J. Biol. Chem. 278:1450-1456).

Row | Molecule | AD037 mRNA level (RT-PCR, normalized to GAPDH) (AD037 mRNA [1]) | AD037 mRNA level (RT-PCR, normalized to GAPDH) (AD037 mRNA [2]) | LPS-induced AD037 expression (mRNA) (NF-κB pathway) | LPS-induced AD037 expression (mRNA) (NF-κB pathway; listed as 4(2′-aminoethyl)amino-1,8-dimethylimidazo(1,2-a) quinoxaline)
1 | IFN-γ: interferon-γ (Peprotech), fails to activate the NF-KB pathway | Little upregulation | – | – | –
2 | IL-17: IL-17 (R&D Systems) cytokine stimulus | – | No upregulation | – | –
3 | Cc1ccc2nc(NCCN)c3ncc(C)n3c2c1 [BMS-345541, 4(2′-aminoethyl)amino-1,8-dimethylimidazo(1,2-a) quinoxaline] | – | – | reduced to control levels | significantly inhibited
4 | TNFα | upregulated | No upregulation | – | –
5 | B1 | – | No upregulation | – | –
